For series [1], the system named is human osteosarcoma cells (MG-63). The series can be described thus: Cytotoxicity by SRB assay, MG-63 cells. The series is classed as cell-based. The note with it: 0.01 μM to 100 μM for 72 h. Here is the method: (§1) Human prostate cancer cells (PC3) and human osteosarcoma cells (MG-63) were obtained from Nawah Scientific Inc. (Mokatam, Cairo, Egypt) and cultured in DMEM (Dulbecco's modified eagle's medium), Gibco, USA, supplemented with fetal bovine serum (FBS) at a concentration of 10% and 100 U/mL of penicillin and streptomycin (PS). The cells were incubated at 37° C. in a humidified environment that contained 5% CO2. Cells were seeded in 96-well plates as aliquots of 100 μL cell suspension and incubated in a complete media for 24 h. afterward, cells were treated with 3-(4-chlorophenyl)-5-{[5-methyl-2-(propan-2-yl)phenoxy]methyl}-1,2,4-oxadiazole at diverse concentrations ranging from 0.01 μM to 100 μM for 72 h. Then, cells were fixed at 4° C. for one hour with 150 μL of 10% trichloroacetic acid (TCA). After washing the cells five times with distilled water, 70 μL of sulforhodamine (SRB) solution (0.4% w/v) was added and incubated for 10 min at room temperature in a dark place. […] Then, 150 μL of Tris pH 10.5 (10 mM) was added, and the absorbance was measured at 540 nm using a BMG LABTECH®-FLUOstar Omega microplate reader (Ortenberg, Germany). Half maximal inhibitory concentrations (IC50) values were calculated for each experiment using GraphPad Prism 6 software. […] The inhibition was calculated using the following equation: Inhibition %=100−Average Viability
(In general: Sulforhodamine B stains cellular protein and so reports cell mass.)

Series [2] concerns Human prostate cancer cells (PC3). The experiment in a line: Cytotoxicity by SRB assay, PC3 cells. The series is classed as cell-based. The note with it: 0.01 μM to 100 μM for 72 h. Here is the method: as §1

What is called melting point is the temperature, or range, at which the solid turns liquid. Take `Cc1ccc(C(C)C)c(OCc2nc(-c3ccc(Cl)cc3)no2)c1` [3-(4-chlorophenyl)-5-{[5-methyl-2-(propan-2-yl)phenoxy]methyl}-1,2,4-oxadiazole]: the melting point lay within 166 to 167 °C. Further, in series [1], the antiproliferative activity result is “excellent antiproliferative activities”. In addition, in series [2], the antiproliferative activity result is “excellent antiproliferative activities”.

Source of the values: US11970471B1, “3-(4-chlorophenyl)-5-{[5-methyl-2-(propan-2-yl)phenoxy]methyl }- 1,2,4-oxadiazole as an antitumor and antimicrobial compound” (KING FAISAL UNIVERSITY, priority 2023, dated 2024).
